In brackets after ≈: the same amount, converted by molar mass. Like-named read-outs stand apart in the source and are kept apart here.
Tested on: L1210 Leukämiezellen
Test: Colony formation of L1210 leukemia cells in soft agar
Format: cell-based, Maus
Details: for IC50: Mus musculus
Text: Die zytostatische Wirksamkeit der erfindungsgemäßen Verbindungen wurde anhand von L1210 Leukämiezellen der Maus getestet. Hierzu wurde die Koloniebildung von L1210 Leukämiezellen in Agarplatten herangezogen. Diese Methode dient zum Nachweis des Einflusses der Testsubstanzen auf das Wachstumsverhalten der Zellen nach Inkubation von 1 Stunde oder über mehrere Generationen. Bei einer Zelzykluszeit von 10-12 Stunden werden dabei in der Testzeit von 7 Tagen etwa 14 aufeinanderfolgende Generationen beobachtet. Die erfindungsgemäßen zytostatisch wirksamen Substanzen bewirken in diesem Test eine Reduktion der zu beobachtenden Koloniezahl gegenüber einer unbehandelten Kontrollprobe.
Einzelheiten des Testverfahrens ergeben sich aus der nachfolgenden Verfahrensweise zur Ermittlung der Koloniebildung.
Verfahrensweise zur Ermittlung der Koloniebildung von L1210 Leukämiezellen in Soft-Agar
500 Leukämiezellen pro Platte wurden mit unterschiedlichen Konzentrationen der Testsubstanz 1 Stunde bei 37°C inkubiert. Anschließend wurden die Zellen zweimal mit McCoy5A-Medium gewaschen und schließlich in Petrischalen nach Zugabe von 0,3 % Agar ausgegossen. Kontrollen wurden lediglich mit frischem Medium inkubiert. Anstelle der einstündigen Inkubation wurden in manchen Fällen unterschiedliche Konzentrationen und Testsubstanzen der oberen Agarschicht zugemischt, um so eine kontinuierliche Exposition der Zellen über die gesamte Inkubationszeit zu erreichen. Nach Erstarren des Agars wurden die Platten im Brutschrank 7 Tage bei 37°C inkubiert (5 Vol.-% CO₂, 94 % relative Luftfeuchtigkeit). Anschließend wurde die Zahl der entstandenen Kolonien mit einem Durchmesser von mehr als 60 µm gezählt. Die Ergebnisse wurden angegeben als Koloniezahl in behandelten Agarplatten in Prozent der unbehandelten Kontrolle. Aus der so erhaltenen Dosiswirkungskruve wurde die IC₅₀ als Maß für die Wirksamkeit der Substanz ermittelt. Die Ergebnisse für die hier beschriebenen Verbindungen im Vergleich zu Adriamycin sind in der nachfolgenden Tabelle 1 zusammengefaßt.

[1] = L1210, 168 h, continuous exposure: substance mixed into upper agar layer for the whole 7-day incubation at 37°C, colonies > 60 µm counted, percent of untreated control, read-out: Dauerinkubation IC50
[2] = L1210, 1 h incubation with substance at 37°C, cells washed twice, then plated in 0,3 % agar for 7 days, colonies > 60 µm counted, read-out: 1h-Inkubation IC50
[3] = 1 h incubation with substance at 37°C, cells washed twice, then plated in 0,3 % agar for 7 days, colonies > 60 µm counted
[4] = continuous exposure: substance mixed into upper agar layer for the whole 7-day incubation at 37°C, colonies > 60 µm counted, percent of untreated control

Structure (SMILES)	IC50 [1] [µg/mL]	IC50 [2] [µg/mL]	also measured
CC[C@@]1(O)C[C@H](O[C@H]2C[C@H](N)[C@@H](OCc3ccccc3)[C@H](C)O2)c2c(O)c3c(c(O)c2[C@H]1O[C@H]1C[C@H](N)[C@@H](OCc2ccccc2)[C@H](C)O1)C(=O)c1cccc(O)c1C3=O [Beispiel 51, 7,10-Di-O-(4-O-Benzyl-α-L-acosaminyl)-β-rhodomycinon]	0.4 (≈ 0.485 µM)	0.68 (≈ 0.824 µM)	–
CC[C@@]1(O)C[C@H](O[C@H]2C[C@H](NC(=O)C(F)(F)F)[C@H](OC(=O)c3ccc([N+](=O)[O-])cc3)[C@H](C)O2)c2c(O)c3c(c(O)c2[C@H]1O[C@@H]1C[C@H](NC(=O)C(F)(F)F)[C@H](OC(=O)c2ccc([N+](=O)[O-])cc2)[C@H](C)O1)C(=O)c1cccc(O)c1C3=O [Beispiel 27, 7,10-Di-O-(4-O-paranitrobenzoyl-3-N-trifluoracetyl-α-L-daunosaminyl)-β-rhodomycinon]	–	–	1h-Inkubation IC50 [3]: >1 µg/mL; Dauerinkubation IC50 [4]: >1 µg/mL
CC[C@@]1(O)C[C@H](O[C@H]2C[C@H](NC(=O)C(F)(F)F)[C@@H](OC(=O)c3ccc([N+](=O)[O-])cc3)[C@H](C)O2)c2c(O)c3c(c(O)c2[C@H]1OC(=O)C(F)(F)F)C(=O)c1cccc(O)c1C3=O [Beispiel 13, 7-0-(4-0-Paranitrobenzoyl-3-N-trifluoracetyl-α-L-acosaminyl)-10-0-trifluoracetyl-β-rhodomycinon]	0.03 (≈ 0.035 µM)	> 1	–
CC[C@@]1(O)C[C@H](O)c2c(O)c3c(c(O)c2[C@H]1O[C@H]1C[C@H](N)[C@@H](O)[C@H](C)O1)C(=O)c1cccc(O)c1C3=O [Beispiel 10, 10-0-α-L-Acosaminyl-β-rhodomycinon]	0.9 (≈ 1.75 µM)	6.5 (≈ 12.6 µM)	–
CC[C@@]1(O)C[C@H](O[C@@H]2O[C@@H](C)[C@H](OC(C)=O)[C@@H](OC(C)=O)[C@H]2I)c2c(O)c3c(c(O)c2[C@H]1OC1CCCCO1)C(=O)c1cccc(O)c1C3=O (stereo partly drawn) [Beispiel 25, 7-O-(3,4-Di-O-acetyl-2,6-didesoxy-2-iodo-α-L-mannopyranosyl)-10-O-tetrahydropyranyl-β-rhodomycinon]	–	–	1h-Inkubation IC50 [3]: >1 µg/mL; Dauerinkubation IC50 [4]: >1 µg/mL
CC[C@@]1(O)C[C@H](O[C@H]2C[C@H](N(C)C)[C@@H](O)[C@H](C)O2)c2c(O)c3c(c(O)c2[C@H]1O)C(=O)c1cccc(O)c1C3=O [Beispiel 16, 7-0-(3-N,N-Dimethyl-α-L-acosaminyl)-β-rhodomycinon]	–	–	IC50 (L1210, 168 h, read-out: Dauerinkubation IC50): 0.006 µg/mL (≈ 0.011 µM); IC50 (L1210, read-out: 1h-Inkubation IC50): 0.02 µg/mL (≈ 0.0368 µM); zytostatische Wirksamkeit (statement in words, compared with Adriamycin): vergleichbar
CC[C@@]1(O)C[C@H](O)c2c(O)c3c(c(O)c2[C@H]1O[C@H]1C[C@H](N)[C@H](O)[C@H](C)O1)C(=O)c1cccc(O)c1C3=O [Beispiel 11, 10-0-α-L-Daunosaminyl-β-rhodomycinon]	> 1	> 1	–
CC[C@@]1(O)C[C@H](O[C@H]2C[C@H](N)[C@H](O)[C@H](C)O2)c2c(O)c3c(c(O)c2[C@H]1O[C@H]1C[C@H](N)[C@H](O)[C@H](C)O1)C(=O)c1cccc(O)c1C3=O [Beispiel 29, 7,10-Di-O-α-L-daunosaminyl-β-rhodomycinon]	> 10	> 1	–
CC[C@@]1(O)C[C@H](O)c2c(O)c3c(c(O)c2[C@H]1O[C@H]1C[C@H](N(C)C)[C@@H](O)[C@H](C)O1)C(=O)c1cccc(O)c1C3=O [Beispiel 12, 10-0-(3-N,N-Dimethyl-α-L-acosaminyl)-β-rhodomycinon]	0.5 (≈ 0.92 µM)	> 1	–
CC[C@@]1(O)C[C@H](O[C@H]2C[C@H](NC(=O)C(F)(F)F)[C@H](OC(C)=O)[C@H](C)O2)c2c(O)c3c(c(O)c2[C@H]1O[C@H]1C[C@H](NC(=O)C(F)(F)F)[C@H](OC(C)=O)[C@H](C)O1)C(=O)c1cccc(O)c1C3=O [Beispiel 28, 7,10-Di-O-(4-O-acetyl-3-N-trifluoracetyl-α-L-daunosaminyl)-β-rhodomycinon]	> 1	> 1	–
CC[C@@]1(O)C[C@H](O[C@H]2C[C@H](N)[C@H](O)[C@H](C)O2)c2c(O)c3c(c(O)c2[C@H]1OC1CCCCO1)C(=O)c1cccc(O)c1C3=O (stereo partly drawn) [Beispiel 21, 7-O-α-L-Daunosaminyl-10-O-tetrahydropyranyl-β-rhodomycinon]	–	–	1h-Inkubation IC50 [3]: >1 µg/mL; Dauerinkubation IC50 [4]: 0.5 µg/mL
